The target of one series is ABCC1 (Homo sapiens, UniProt P33527). In words: MDCKII cellular monolayer transport assay. It counts as in vitro ADME. The settings on record: 1 µM tepotinib, 4 h. The protocol: (§1) This assay was performed as described previously. […] The Transwells were incubated until full confluence for 7 days with media replacement every 2 days. Prior addition of tested drugs, inserts were washed with 1 × PBS on both apical and basal sides. […] Samples were then collected from the acceptor chambers at 0.5, 1, 2 and 4 h intervals. Cellular monolayers’ integrity was verified using fluorescein isothiocyanate-labeled dextran (MW = 40 kDa) accepting leakage up to 5% per hour.
Sequence of ABCC1 (P33527 whole entry): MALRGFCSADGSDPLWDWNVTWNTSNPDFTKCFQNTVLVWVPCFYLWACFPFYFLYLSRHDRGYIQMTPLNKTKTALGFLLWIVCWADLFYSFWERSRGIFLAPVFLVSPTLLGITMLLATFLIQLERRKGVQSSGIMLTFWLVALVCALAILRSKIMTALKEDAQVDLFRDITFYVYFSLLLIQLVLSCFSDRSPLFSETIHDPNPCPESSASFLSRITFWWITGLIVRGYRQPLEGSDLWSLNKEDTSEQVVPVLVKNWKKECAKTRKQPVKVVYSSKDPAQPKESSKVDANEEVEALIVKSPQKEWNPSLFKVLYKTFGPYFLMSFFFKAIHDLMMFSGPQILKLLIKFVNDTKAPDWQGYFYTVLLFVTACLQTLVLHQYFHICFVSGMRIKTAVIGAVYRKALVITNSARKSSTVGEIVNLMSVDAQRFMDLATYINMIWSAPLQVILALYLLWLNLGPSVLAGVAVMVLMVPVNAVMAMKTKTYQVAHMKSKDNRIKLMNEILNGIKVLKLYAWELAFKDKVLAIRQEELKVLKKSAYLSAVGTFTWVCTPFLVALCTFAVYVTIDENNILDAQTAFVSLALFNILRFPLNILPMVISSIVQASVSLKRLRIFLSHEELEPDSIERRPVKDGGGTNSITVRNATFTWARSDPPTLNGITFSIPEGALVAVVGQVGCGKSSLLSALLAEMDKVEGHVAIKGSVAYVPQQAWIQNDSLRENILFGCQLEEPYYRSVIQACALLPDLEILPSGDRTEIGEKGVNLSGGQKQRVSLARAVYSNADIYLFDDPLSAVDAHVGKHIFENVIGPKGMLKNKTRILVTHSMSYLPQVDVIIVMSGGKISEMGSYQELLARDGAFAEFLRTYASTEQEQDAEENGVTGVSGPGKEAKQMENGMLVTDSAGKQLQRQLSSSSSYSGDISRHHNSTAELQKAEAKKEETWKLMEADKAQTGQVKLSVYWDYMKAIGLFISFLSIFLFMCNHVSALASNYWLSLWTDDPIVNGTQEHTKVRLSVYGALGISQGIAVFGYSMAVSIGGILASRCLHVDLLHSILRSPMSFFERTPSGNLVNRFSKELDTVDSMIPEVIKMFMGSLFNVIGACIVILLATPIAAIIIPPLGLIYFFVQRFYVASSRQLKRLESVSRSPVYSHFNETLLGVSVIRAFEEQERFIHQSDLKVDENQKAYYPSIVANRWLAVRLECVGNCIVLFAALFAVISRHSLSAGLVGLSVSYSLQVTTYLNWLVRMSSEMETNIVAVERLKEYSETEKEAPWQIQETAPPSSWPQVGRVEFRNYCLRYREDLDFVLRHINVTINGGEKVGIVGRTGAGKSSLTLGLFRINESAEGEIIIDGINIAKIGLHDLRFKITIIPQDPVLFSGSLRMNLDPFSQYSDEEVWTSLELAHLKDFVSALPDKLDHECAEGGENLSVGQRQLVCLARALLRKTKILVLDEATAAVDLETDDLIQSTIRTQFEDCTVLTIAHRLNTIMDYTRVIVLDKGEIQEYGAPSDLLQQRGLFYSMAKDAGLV

The next series addresses ABCB1 (Homo sapiens, UniProt P08183). In words: MDCKII cellular monolayer transport assay. Format: in vitro ADME. The settings on record: 1 µM tepotinib, 4 h, asymmetry aborted by 1 µM LY335979. The protocol:
as §1

The target in the next series is T1, CYP3A5 (Homo sapiens, UniProt P20815).
T1 construct: purchased Thermo Fisher Scientific
T1 sequence (P20815 whole entry): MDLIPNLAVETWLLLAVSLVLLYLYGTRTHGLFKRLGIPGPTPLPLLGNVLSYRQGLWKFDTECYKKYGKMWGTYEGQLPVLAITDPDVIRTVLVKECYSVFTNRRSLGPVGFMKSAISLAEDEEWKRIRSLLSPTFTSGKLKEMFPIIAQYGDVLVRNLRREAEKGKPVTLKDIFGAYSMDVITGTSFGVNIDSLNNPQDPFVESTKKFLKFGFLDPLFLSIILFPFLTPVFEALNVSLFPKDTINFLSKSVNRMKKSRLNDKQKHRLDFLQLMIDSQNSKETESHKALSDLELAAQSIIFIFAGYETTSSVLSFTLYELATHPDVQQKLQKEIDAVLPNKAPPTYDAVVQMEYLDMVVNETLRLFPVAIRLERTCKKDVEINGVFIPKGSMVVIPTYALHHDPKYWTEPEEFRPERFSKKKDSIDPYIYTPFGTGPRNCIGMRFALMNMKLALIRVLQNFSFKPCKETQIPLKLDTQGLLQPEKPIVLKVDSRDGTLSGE
In words: Vivid CYP450 Screening Kit, recombinant CYP3A5. It counts as in vitro ADME. The protocol: (§2) CYP inhibitory assay was performed using Vivid CYP450 screening kit as described previously. The kits consist of microsomal fraction containing human CYP isoforms, human CYP reductase and in several cases cytochrome b5. Experiments were performed following the manufacturer’s protocol on black 96-well plates using kinetic mode. […] Then, the master mix (CYP isoenzyme with an NADPH regeneration system in buffer) was added in each well and plate was pre-incubated for 10 min. The reaction was started with the mixture of NADP^+ and Vivid substrate and the fluorescence of samples was measured in 1 min interval for 60 min using an Infinite M200 Pro microplate reader (Tecan, Männedorf, Switzerland). Data from linear phase (15 min) were used for data evaluation.

The target of another series is T2, CYP2B6 (Homo sapiens, UniProt P20813).
T2 construct: purchased Thermo Fisher Scientific
T2 sequence (P20813 whole entry): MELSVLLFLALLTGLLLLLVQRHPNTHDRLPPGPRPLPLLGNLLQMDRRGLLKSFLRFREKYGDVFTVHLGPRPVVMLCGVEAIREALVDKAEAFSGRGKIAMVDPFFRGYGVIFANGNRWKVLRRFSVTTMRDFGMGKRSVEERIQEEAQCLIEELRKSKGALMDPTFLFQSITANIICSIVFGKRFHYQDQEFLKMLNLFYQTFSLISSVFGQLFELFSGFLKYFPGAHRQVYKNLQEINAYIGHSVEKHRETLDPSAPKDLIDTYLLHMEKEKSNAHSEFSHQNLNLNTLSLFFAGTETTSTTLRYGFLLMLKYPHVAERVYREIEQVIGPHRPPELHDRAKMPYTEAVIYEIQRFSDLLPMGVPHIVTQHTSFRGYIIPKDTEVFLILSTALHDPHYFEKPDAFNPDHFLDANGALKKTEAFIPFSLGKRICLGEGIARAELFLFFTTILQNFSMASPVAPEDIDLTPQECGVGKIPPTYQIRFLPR
The series can be described thus: Vivid CYP450 Screening Kit, recombinant CYP2B6. Format: in vitro ADME. The settings on record: recombinant enzyme; read-out: CYP2B6 inhibition IC50. The protocol: as §2

For series [1], the system named is patient-derived NSCLC explants. In words: Daunorubicin and mitoxantrone accumulation in primary NSCLC explants. It counts as cell-based, human. As to conditions: six primary cultures; predominantly those with higher transporters' expression levels. An excerpt: Tumor biopsies were donated by NSCLC patients at the Department of Cardiac Surgery, University Hospital Hradec Králové following written informed consent approved by the University Hospital Ethics Committee (study no. 202002 […]). Subjects' characteristics are shown in Supplementary Materials (Table S1). The NSCLC samples were collected immediately after the lung lobectomy and excision of tumor by the pathologist, which was followed by the isolation of cancer cells using a modified procedure based on previously published protocols. The tumor tissues were minced in small pieces around 2-5 mm in diameter using a scalpel. To liberate the cells from tissues, the minced pieces were transferred into the prewarmed 0.1% collagenase in 1 × MEM and placed in the water bath for 30 min. Following the incubation, BSA in MEM was added and cells were sieved through a 40 μm-sized cell strainer. Then, the solution was centrifuged at 200× g for 5 min. The pellet was resuspended with a BSA solution in MEM. […] The cells there trypsinized on ice, resuspended with 2% FBS in cold PBS solution and then fluorescence was detected using flow cytometer (BD FACSCanto II, Allschwil, Switzerland). […] For data presentation, the ratios of relative fluorescence units (RFUs) from treated samples to RFUs from vehicle-treated (control) cells were computed generating “relative substrate accumulation”.

In a further series the test system is A431-ABCC1 cells. The series can be described thus: MTT proliferation assay (comparative viability). The settings on record: single drug, 48 h. Format: cell-based. The protocol:
(§3) These colorimetric assays were used in various studies presented in this paper (prior induction studies, MDR reversal experiments and comparative viability assays) and were performed as reported previously. […] In MTT experiments, cells were seeded on a 96-well culture plate at densities (in number of cells/well) of 1.3 × 10^4 for MDCKII-par, MDCKII-ABCB1 and MDCKII-ABCG2; 1.2 × 10^4 for A431-par, A431-ABCB1, A431-ABCG2 and A431-ABCC1; 1.2 × 10^4 for NCI-H1299; 1.0 × 10^4 for A459; 2.0 × 10^4 for Caco-2; 5.0 × 10^4 for LS174T; and 1.0 × 10^4 for primary NSCLC explants. On the other hand, for XTT cells were seeded with densities 2.0 × 10^4 for HL60-par, HL60-ABCB1, HL60-ABCG2 and HL60-ABCC1 cells/well on 96-well plates. […] Following 48 h incubation with drugs, Opti-MEM solutions of MTT or XTT (1 mg/mL) with phenazine methosulfate solution (7.50 μg/mL; only for XTT) was added and the cells were incubated for 1 h with the exception of HL60s that were incubated for 5 h.
A general note: Tetrazolium dyes change colour on reduction, which living cells bring about.

Another series deals with CYP3A4. As to conditions: DI study in healthy subjects; cited from earlier work.
Another series relates to A431-par cells. The series can be described thus: MTT proliferation / drug combination assay. Format: cell-based. As to conditions: 48 h, read-out: A431-par IC50. The protocol: as §3
Based on the computed CI values, the effects of drug combinations were classified as synergistic (CI < 0.9), additive (0.9 < CI < 1.1) or antagonistic (CI > 1.1).

For series [2] the following is noted: recommended dosing of 500 mg daily; read-out: steady state Cmax; cited from earlier work.

Sequence of ABCB1 (P08183 whole entry): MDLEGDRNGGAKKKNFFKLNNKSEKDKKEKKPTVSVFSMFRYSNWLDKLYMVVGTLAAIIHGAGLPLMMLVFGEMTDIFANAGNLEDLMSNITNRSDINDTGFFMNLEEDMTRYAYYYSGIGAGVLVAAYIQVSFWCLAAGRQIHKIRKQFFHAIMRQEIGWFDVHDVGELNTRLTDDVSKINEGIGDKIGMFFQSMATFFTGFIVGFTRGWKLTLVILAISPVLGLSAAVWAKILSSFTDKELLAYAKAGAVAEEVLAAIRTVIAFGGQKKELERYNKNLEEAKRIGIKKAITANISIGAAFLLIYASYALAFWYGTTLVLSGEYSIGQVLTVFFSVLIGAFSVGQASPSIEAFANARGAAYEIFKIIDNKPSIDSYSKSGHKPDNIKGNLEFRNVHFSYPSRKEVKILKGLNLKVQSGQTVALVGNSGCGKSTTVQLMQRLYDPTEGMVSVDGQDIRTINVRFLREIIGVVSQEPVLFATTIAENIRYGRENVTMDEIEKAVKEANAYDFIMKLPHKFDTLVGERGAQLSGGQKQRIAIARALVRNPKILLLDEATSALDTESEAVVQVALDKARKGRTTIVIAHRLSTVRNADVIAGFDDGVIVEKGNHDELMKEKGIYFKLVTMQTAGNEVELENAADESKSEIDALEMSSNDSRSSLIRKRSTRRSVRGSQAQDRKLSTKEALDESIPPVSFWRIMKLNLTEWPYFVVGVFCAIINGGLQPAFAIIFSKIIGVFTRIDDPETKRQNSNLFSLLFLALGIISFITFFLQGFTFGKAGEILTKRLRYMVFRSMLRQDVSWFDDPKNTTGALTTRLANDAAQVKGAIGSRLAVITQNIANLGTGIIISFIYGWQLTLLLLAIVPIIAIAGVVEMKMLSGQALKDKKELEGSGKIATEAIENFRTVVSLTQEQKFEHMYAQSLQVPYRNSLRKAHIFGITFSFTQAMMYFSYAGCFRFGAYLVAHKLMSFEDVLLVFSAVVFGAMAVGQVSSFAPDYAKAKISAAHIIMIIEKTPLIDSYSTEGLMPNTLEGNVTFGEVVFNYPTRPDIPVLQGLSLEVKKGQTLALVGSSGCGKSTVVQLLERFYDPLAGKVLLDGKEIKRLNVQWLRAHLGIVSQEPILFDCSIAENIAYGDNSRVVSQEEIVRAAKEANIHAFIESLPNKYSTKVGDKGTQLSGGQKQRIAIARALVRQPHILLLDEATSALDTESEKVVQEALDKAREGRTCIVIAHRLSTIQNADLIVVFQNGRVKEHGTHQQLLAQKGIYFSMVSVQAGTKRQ

Broadly, the IC50 is the concentration that inhibits the measured activity by half. As a reminder, the Cmax is the highest concentration seen after dosing. Take `CN1CCC(COc2cnc(-c3cccc(Cn4nc(-c5cccc(C#N)c5)ccc4=O)c3)nc2)CC1` [tepotinib, Tepotinib]: the “Substrate affinity for ABCC1” value at ABCC1 is recorded as “No substrate affinities”. Further, the “Substrate affinity for ABCB1 (transport asymmetry)” value at ABCB1 was “ABCB1 substrate”. In addition, the IC50 was 38.8 µM on CYP3A5, > 50 µM on CYP2B6, 16.2 µM in the series with A431-ABCC1 cells and 15.7 µM in the series on A431-par cells. Besides, in series [1], the “Effect on accumulation of mitoxantrone and daunorubicin” value is “significantly increased the accumulation of model anticancer drugs in some of the primary samples”. In addition, in the series on CYP3A4, the “Effect on CYP3A4 substrate midazolam” value is listed as “failed to exert the effect”. For the same compound, the Cmax in series [2] is 2620 nM.

Source of the values: PMC8584989 (International Journal of Molecular Sciences, 2021).
